US20250222051A1, “MU[…] ADJUVANT TREATMENT OF TUMOR, AND PREPARATION METHOD AND APPLICATION THEREOF” (Changde Jizhi Biological Technology Co., Ltd, priority 2024, published 2025)

What was measured:
mouse H22 hepatoma cells = settings: oxaliplatin 15 mg/kg tail vein once, products 0.45 g/kg intragastric
Protocol: The anti-tumor effect of the product of the disclosure on a Hepatoma-22 (H22) mouse model of live cancer is studied.
Positive control drug: oxaliplatin.
Animals and preparation of tumors are as follows. BALB/c male mice are adopted, weighing 18-22 g. The mice are fed in specific-pathogen free (SPF) grade animal house, with temperature of 20-25° C., relative humidity of 40%-70%, 6 mice per cage, illumination time of 12 h, regular and quantitative addition of feed, free drinking water, and daily replacement of padding.
Transplanted tumor cells: 10^6 mouse H22 hepatoma cells are injected into abdominal cavity for passage, and the hepatoma cells are collected after 7-10 days for subcutaneous inoculation.
Experimental methods of tumor passage preservation for in vivo tumor inhibition effect evaluation: H22 hepatoma mice are inoculated intraperitoneally and the ascites is taken for passage and preservation.
Tumor inoculation: H22 hepatocellular carcinoma bearing mice on the 10th day of ascites passage are taken, the mice are killed by cervical vertebra removal, the abdominal skin is disinfected, milky white ascites is absorbed with a sterile syringe, and the concentration of tumor cells is adjusted to 1×10^6 cells per milliliter (mL) with normal saline for injection. The right armpit skin of BALB/c mice is disinfected with alcohol cotton balls, 0.2 mL of the tumor cell suspension is inoculated subcutaneously, and the mice are raised routinely.
After 24 hours of the last administration, the mice are sacrificed by cervical dislocation, and the tumor tissues are stripped and weighed. The curative effect is evaluated by tumor weight inhibition rate (%), and analysis of variance (ANOVA) test is used for statistical comparison between groups.

[1] = tested on: Human lung cancer cells (A549); settings: A549 transplanted tumor, oxaliplatin 15 mg/kg tail vein once, products 0.45 g/kg intragastric
Description: (§1) Experimental animals: BLAB/c female nude mice, 6-7 weeks old, weighing 18-20 g.
(§2) Subcutaneous tumor cell inoculation in mice: Human lung cancer cells (A549), human ovarian cancer cells (Skov-3) and human cervical cancer epithelial cells (Hela) in logarithmic growth phase are taken and made into cell suspension (1×10^7 cells/mL) with phosphate buffered saline (PBS), each mouse is inoculated with 2×10^6 cells, the inoculation volume is 200 microliters (μL), and then inoculated subcutaneously in the armpit of BLAB/c nude mice. The selected tumor tissues are put into a glass homogenizer, ground with sterile physiological saline, filtered into a single cell suspension through a sieve, and the number of living cells is counted by trypan blue staining. Each nude mouse is inoculated with 200 μL cell suspension (including 1×10^6 cells) under its armpit.
(§3) Experimental grouping and methods: nude mice with the same tumor size are selected, and the nude mice are weighed and randomly divided into groups. […] The drug concentration and specific grouping are as follows. The model control group is intragastrically administered with 200 μL normal saline once a day, the mice are administered once on the second day after tumor inoculation. […] After 24 hours of the last administration, the tumor mass is taken out, the tumor weight is measured and the tumor inhibition rate is calculated.

[2] = tested on: human ovarian cancer cells (Skov-3); settings: Skov-3 transplanted tumor, oxaliplatin 15 mg/kg tail vein once, products 0.45 g/kg intragastric
Description: as §1, §2, §3

[3] = tested on: human cervical cancer epithelial cells (Hela); settings: Hela transplanted tumor, oxaliplatin 15 mg/kg tail vein once, products 0.45 g/kg intragastric
Description: as §1, §2, §3

O=C1[O][Pt]2([NH][C@@H]3CCCC[C@H]3[NH]2)[O]C1=O [Oxaliplatin, oxaliplatin]
Tumor weight (mouse H22 hepatoma cells; H22 subcutaneous tumor, 24 hours after last administration): 1.14 ± 0.29 g
Inhibition rate (%) (mouse H22 hepatoma cells; H22 tumor weight inhibition rate): 50.22%
Weight Start (mouse H22 hepatoma cells; body weight of H22 tumor-bearing mice at start): 20.09 ± 1.08
Tumor weight ([1]; X ± SD): 0.98 ± 0.32 g
Inhibition rate (%) [1]: 58.25%
Tumor weight ([2]; X ± SD): 1.78 ± 0.33 g
Inhibition rate (%) [2]: 45.25%
Tumor weight ([3]; X ± SD): 1.78 ± 0.33 g
Inhibition rate (%) [3]: 45.25%
